Patent US10941158B2, “Pyrazole ACC inhibitors and uses thereof” (Gilead Apollo, LLC, priority 2015, dated 2021)
pIC50: −log10 of the molar value. Converted amounts (≈) assume the structure as drawn. Read-outs that look alike come from different tables or passages of the source.

Columns and labels:
fungal (fACC2) ACC2 = fungal (fACC2) ACC2 (UniProt Q00955); details: read-out: fACC2 IC50; fungal ACC2, ADP-Glo
Description: An exemplary procedure for the in vitro ACC inhibition assay, which can be used to determine the inhibitory action of compounds of the invention toward either human (hACC2) or fungal (fACC2) ACC2, follows. The ADP-Glo™ Kinase Assay kit from Promega was used. The ADP-Glo™ Kinase Assay is a luminescent ADP detection assay to measure enzymatic activity by quantifying the amount of ADP produced during an enzyme reaction. The assay is performed in two steps; first, after the enzyme reaction, an equal volume of ADP-Glo™ Reagent is added to terminate the reaction and deplete the remaining ATP. Second, the Kinase Detection Reagent is added to simultaneously convert ADP to ATP and allow the newly synthesized ATP to be measured using a luciferase/luciferin reaction. Luminescence can be correlated to ADP concentrations by using an ATP-to-ADP conversion curve. The detailed procedure is as follows. 50 μL of the compound being tested (600 μM in DMSO) was added to a 384-well dilution plate. The compound was diluted 1:3 in succession in DMSO for each row for 11 wells. 0.5 μL ACC2 working solution was added to 384-well white Optiplate assay plate. 0.5 μL diluted compound solution in each column from step 2 was added to assay plate, each row containing 2 replicates. […] The plates were incubated at room temperature for 15 minutes. 5 μL substrate working solution was added to each well to initiate reaction. Final ACC2 reaction concentrations consist of: 5 nM ACC2, 20 μM ATP, 20 μM acetyl-CoA, 12 mM NaHCO3, 0.01% Brij35, 2 mM DTT, 5% DMSO, test compound concentrations: 30 μM, 10 μM, 3.33 μM, 1.11 μM, 0.37 μM, 0.123 μM, 0.0411 μM, 0.0137 μM, 0.00457 μM, 0.00152 μM, and 0.00051 μM. Plates were incubated at room temperature for 60 minutes. 10 μL ADP glo reagent was added. Plates were incubated at room temperature for 40 minutes. 20 μL kinase detection reagent was added. Plates were incubated at room temperature for 40 minutes, and then read on a Perkin Elmer EnVision 2104 plate reader for luminescence as Relative Light Units (RLU).
Data for each concentration, as well as the positive and negative controls were averaged, and the standard deviation calculated. Percent inhibition was calculated by the formula: 100×(average negative control−compound)/(average negative control−average positive control). The IC50 for each compound was calculated by fitting the data with a non-linear regression equation: Y=Bottom+(Top-Bottom)/(1+10^((Log IC50−X)*Hill Slope)), where X is the log of compound concentration and Y is percent inhibition.
Compounds having an activity designated as “AA” provided an IC50 0.0006-0.003 μM; provided an “A” provided an IC50 0.003-0.01 μM; compounds having an activity designated as “B” provided an IC50 0.01-0.04 μM; and compounds having an activity designated as “C” provided an IC50>0.04 μM IC50. “NA” stands for “not assayed.”

human (hACC2) ACC2 = human (hACC2) ACC2 (Homo sapiens, UniProt O00763); assay: In vitro Acetyl-CoA Carboxylase (ACC) inhibition assay (ADP-Glo), hACC2; assay type: biochemical
Description: The detailed procedure is as follows. […] 10 μL ADP glo reagent was added. […] 20 μL kinase detection reagent was added.
“NA” stands for “not assayed.”

[1] = test system: Phytophthora capsici (Pc); assay: Growth inhibition assay of fungal pathogens; assay type: cell-based; details: for IC90: Phytophthora capsici, read-out: Concentration at 90% Inhibition Pc
Summary of the method: (§1)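 Compounds in DMSO tested at final 50, 10, 2 ppm or 2, 0.4, 0.08 ppm. Spores in 17% V8 medium, or 1.5 mm mycelial plugs in ¼ PDB for R. solani, incubated with compound. OD600 and visual ratings at 48 h versus 2% DMSO control gave percent growth inhibition.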

Rhizoctonia solani (Rs) = assay: Growth inhibition assay of fungal pathogens; assay type: cell-based; details: 48 h, read-out: Concentration at 90% Inhibition Rs
Summary of the method: (§2)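 OD600 (blank-subtracted) plus visual scoring at 48 h, vs 2% DMSO ctrl → % inhibition. Final cpd 50/10/2 or 2/0.4/0.08 ppm. Fm/Bc/Dm spores in 17% V8 broth; Rs as 1.5 mm plugs in ¼ PDB.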

Botrtyis cinerea (Bc) = assay: Growth inhibition assay of fungal pathogens; assay type: cell-based; details: 48 h, read-out: Concentration at 90% Inhibition Bc
Summary of the method: as §2

Septoria tritici (St) = assay: Growth inhibition assay of fungal pathogens; assay type: cell-based; details: for IC90: Zymoseptoria tritici, read-out: Concentration at 90% Inhibition St
Summary of the method: as §1

Diplodia maydis (Dm) = assay: Growth inhibition assay of fungal pathogens; assay type: cell-based; details: Stenocarpella maydis, 48 h, read-out: Concentration at 90% Inhibition Dm
Summary of the method: as §2

[2] = test system: Fusarium virguliforme (Fv); assay: Growth inhibition assay of fungal pathogens; assay type: cell-based; details: 48 h
Summary of the method: as §1

[3] = test system: Collectotrichum graminicola (Cg); assay: Growth inhibition assay of fungal pathogens; assay type: cell-based; details: 48 h, read-out: Concentration at 90% Inhibition Cg
Summary of the method: as §1

[4] = test system: Fusarium moniliforme (Fm); assay: Growth inhibition assay of fungal pathogens; assay type: cell-based; details: Fusarium verticillioides, 48 h, read-out: Concentration at 90% Inhibition Fm
Summary of the method: as §2

C. krusei ATCC 6258 = assay: Anti-Fungal (Candida) Activity Assay, broth microtiter MIC; assay type: cell-based; details: Pichia kudriavzevii, read-out: MIC C. krusei ATCC 6258
Summary of the method: (§3)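 In CLSI M27-A3 microtiter plates, yeast from overnight agar culture is inoculated in RPMI 1640–MOPS at a standard-curve density. The MIC is the endpoint scored visually against growth control at 48 h.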

C. albicans ATCC 90028 = assay: as above; assay type: cell-based; details: read-out: MIC C. albicans ATCC 90028
Summary of the method: as §3

[5] = test system: C. parapsilosis ATCC 22019; assay: as above; assay type: cell-based; details: Lodderomyces parapsilosis, read-out: MIC C. parapsilosis ATCC 22019
Summary of the method: as §3

[6] = Table 4b, 48 hours, read-out: Concentration at 90% Inhibition Fv
[7] = ATCC6258, 3 replicates, MIC recorded at 48 h
[8] = ATCC90028, 3 replicates, MIC recorded at 48 h
[9] = ATCC22019, 3 replicates, MIC recorded at 48 h

Sequence of human (hACC2) ACC2 (O00763 whole entry): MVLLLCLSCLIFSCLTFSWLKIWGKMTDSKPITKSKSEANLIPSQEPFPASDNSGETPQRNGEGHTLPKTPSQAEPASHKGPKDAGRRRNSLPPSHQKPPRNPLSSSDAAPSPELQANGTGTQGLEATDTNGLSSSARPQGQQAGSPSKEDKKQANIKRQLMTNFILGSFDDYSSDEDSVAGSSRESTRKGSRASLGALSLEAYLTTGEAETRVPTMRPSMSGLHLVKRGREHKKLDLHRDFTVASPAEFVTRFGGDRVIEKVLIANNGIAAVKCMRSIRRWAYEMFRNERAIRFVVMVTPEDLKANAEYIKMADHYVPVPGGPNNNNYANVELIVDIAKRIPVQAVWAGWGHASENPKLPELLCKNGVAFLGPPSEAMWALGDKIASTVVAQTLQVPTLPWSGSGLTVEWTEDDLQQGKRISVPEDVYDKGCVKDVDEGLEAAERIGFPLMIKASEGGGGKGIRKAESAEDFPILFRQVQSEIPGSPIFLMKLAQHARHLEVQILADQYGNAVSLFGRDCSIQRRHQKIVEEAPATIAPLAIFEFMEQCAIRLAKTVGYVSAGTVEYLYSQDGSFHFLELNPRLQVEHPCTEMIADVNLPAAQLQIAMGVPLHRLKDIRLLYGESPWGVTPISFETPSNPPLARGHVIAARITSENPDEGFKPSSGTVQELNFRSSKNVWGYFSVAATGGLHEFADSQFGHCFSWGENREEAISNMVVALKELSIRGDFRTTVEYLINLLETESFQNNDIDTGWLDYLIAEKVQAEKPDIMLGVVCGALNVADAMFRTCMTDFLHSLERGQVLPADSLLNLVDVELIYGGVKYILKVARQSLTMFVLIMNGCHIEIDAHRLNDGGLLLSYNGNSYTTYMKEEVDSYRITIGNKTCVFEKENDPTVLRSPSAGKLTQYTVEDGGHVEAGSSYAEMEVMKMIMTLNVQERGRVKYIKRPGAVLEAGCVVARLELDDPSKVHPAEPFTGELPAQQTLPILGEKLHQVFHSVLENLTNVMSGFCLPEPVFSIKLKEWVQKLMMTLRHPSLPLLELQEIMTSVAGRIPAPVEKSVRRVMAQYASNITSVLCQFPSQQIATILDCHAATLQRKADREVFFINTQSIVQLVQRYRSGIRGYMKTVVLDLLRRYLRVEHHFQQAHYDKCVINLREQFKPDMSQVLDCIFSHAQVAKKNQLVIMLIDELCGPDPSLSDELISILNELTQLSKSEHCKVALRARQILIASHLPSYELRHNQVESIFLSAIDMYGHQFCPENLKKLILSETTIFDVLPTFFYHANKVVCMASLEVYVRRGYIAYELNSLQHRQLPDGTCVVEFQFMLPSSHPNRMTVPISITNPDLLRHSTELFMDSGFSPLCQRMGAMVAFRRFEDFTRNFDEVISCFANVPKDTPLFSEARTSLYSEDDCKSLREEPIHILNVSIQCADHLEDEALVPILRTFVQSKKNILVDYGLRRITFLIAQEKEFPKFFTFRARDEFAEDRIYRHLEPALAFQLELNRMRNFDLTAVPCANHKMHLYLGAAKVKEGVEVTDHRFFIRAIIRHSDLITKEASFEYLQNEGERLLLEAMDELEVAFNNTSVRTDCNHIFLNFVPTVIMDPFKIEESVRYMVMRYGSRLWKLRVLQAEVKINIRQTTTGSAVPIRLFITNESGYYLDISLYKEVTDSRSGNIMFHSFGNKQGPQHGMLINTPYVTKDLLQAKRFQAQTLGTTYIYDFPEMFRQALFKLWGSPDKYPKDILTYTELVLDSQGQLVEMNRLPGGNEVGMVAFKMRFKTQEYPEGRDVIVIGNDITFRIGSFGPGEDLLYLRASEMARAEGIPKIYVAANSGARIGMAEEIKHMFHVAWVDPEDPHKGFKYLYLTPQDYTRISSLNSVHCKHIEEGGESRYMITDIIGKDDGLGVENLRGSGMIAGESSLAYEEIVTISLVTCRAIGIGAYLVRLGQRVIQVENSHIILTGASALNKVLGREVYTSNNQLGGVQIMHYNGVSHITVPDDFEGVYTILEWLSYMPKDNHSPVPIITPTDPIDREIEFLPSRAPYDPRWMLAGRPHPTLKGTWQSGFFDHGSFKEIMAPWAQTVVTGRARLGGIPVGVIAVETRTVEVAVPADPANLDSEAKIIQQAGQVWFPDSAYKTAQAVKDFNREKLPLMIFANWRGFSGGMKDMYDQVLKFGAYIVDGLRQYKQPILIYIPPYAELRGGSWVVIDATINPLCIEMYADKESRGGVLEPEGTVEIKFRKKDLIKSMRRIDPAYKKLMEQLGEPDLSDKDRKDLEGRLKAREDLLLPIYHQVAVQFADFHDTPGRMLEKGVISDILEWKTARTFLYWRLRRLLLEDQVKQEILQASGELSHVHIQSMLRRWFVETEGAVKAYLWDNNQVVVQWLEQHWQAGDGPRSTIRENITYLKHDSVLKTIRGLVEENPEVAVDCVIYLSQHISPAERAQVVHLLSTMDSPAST
Sequence of fungal (fACC2) ACC2 (Q00955 whole entry): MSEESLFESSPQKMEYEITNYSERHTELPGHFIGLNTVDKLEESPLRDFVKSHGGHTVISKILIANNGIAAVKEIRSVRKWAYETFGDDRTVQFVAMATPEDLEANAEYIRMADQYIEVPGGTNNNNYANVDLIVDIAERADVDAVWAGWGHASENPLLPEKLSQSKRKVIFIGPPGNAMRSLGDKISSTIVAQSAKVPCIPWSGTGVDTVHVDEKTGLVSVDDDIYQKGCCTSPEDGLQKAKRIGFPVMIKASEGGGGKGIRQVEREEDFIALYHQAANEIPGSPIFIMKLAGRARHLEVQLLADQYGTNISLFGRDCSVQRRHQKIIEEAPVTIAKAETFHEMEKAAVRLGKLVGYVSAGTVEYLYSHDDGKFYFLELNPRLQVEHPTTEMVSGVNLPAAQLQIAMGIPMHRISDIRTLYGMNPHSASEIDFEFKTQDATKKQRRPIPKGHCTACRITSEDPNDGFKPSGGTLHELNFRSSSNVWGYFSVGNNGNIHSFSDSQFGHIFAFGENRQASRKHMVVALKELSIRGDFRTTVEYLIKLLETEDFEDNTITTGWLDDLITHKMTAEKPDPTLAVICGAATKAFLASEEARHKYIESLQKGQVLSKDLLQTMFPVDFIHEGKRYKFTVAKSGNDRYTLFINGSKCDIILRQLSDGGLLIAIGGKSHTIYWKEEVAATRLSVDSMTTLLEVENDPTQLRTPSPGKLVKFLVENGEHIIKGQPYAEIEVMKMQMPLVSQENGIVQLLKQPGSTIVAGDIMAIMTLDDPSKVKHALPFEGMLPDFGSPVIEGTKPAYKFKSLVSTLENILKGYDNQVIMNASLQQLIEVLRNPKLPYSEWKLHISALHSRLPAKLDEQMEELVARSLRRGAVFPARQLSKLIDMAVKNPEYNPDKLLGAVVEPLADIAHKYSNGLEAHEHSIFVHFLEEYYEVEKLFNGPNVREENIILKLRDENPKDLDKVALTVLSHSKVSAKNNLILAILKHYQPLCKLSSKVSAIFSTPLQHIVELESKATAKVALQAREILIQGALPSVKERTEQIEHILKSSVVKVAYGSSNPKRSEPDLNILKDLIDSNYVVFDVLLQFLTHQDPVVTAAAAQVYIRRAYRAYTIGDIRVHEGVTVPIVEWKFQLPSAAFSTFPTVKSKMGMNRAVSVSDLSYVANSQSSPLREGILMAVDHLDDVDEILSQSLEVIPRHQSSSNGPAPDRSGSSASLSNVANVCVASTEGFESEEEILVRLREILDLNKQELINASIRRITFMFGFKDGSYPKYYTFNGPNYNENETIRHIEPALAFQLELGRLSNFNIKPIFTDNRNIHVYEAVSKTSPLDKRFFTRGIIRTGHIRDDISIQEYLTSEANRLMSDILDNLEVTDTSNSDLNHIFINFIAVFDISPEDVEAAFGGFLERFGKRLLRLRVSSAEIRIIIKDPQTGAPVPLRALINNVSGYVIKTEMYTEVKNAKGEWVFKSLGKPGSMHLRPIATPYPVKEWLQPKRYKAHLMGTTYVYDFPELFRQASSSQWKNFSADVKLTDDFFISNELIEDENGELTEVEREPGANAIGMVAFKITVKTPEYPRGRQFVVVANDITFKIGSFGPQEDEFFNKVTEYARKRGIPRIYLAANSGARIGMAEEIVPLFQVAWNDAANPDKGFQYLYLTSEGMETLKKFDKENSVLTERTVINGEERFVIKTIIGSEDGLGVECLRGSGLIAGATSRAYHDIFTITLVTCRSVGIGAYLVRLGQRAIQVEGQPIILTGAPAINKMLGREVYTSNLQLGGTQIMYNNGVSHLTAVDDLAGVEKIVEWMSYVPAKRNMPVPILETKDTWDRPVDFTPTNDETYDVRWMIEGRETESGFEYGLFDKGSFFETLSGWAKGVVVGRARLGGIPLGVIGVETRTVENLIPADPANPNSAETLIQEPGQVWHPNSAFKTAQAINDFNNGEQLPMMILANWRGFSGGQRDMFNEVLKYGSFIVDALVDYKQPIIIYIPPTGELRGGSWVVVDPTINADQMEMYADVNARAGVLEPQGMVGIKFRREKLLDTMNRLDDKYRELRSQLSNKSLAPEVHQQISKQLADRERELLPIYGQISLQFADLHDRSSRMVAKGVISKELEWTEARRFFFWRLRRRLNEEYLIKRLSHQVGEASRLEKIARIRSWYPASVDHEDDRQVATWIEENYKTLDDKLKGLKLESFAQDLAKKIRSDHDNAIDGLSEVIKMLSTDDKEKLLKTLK

Compound	pIC50 (fungal (fACC2) ACC2)	pIC50 (human (hACC2) ACC2)	IC90 (Rhizoctonia solani (Rs); Table 4b) [µg/mL]	IC90 (Botrtyis cinerea (Bc); Table 4b) [µg/mL]	IC90 (Diplodia maydis (Dm); Table 4b) [µg/mL]	IC90 [2, 6] [µg/mL]	IC90 ([3]; Table 4b) [µg/mL]	IC90 ([4]; Table 4b, 48 hours) [µg/mL]	MIC (C. krusei ATCC 6258; [7]) [µg/mL]	MIC (C. albicans ATCC 90028; [8]) [µg/mL]	MIC [5, 9] [µg/mL]	IC90 ([1]; Table 4b, 48 hours) [µg/mL]	IC90 (Septoria tritici (St); Table 4b, 48 hours) [µg/mL]	other results
COc1ccc(F)cc1[C@H](Cn1c(=O)n(C(C)(C)C(=O)N2CC=CC2)c(=O)c2c(C)c(-n3cccn3)sc21)OC1CCOCC1 [Compound I-45, (R)-3-(1-(2,5-dihydro-1H-pyrrol-1-yl)-2-methyl-1-oxopropan-2-yl)-1-(2-(5-fluoro-2-methoxyphenyl)-2-((tetrahydro-2H-pyran-4-yl)oxy)ethyl)-5-methyl-6-(1H-pyrazol-1-yl)thieno[2,3-d]pyrimidine-2,4(1H,3H)-dione]	8.52 to 9.22	7.40 to 8.00	2 (≈ 3.14 µM)	10 (≈ 15.7 µM)	10 (≈ 15.7 µM)	10 (≈ 15.7 µM)	2 (≈ 3.14 µM)	2 (≈ 3.14 µM)	0.25 to 1 (≈ 0.392 to 1.57 µM)	2.1 to 4 (≈ 3.29 to 6.27 µM)	2.1 to 4 (≈ 3.29 to 6.27 µM)			IC90 ([1]; Table 4a, 48 hours): > 50 µg/mL; Concentration at 90% Inhibition Pc ([1]; Table 4b, 48 hours): D (“D” provided a compound concentration of >50 ppm at 90% inhibition of fungal pathogens); IC90 (Rhizoctonia solani (Rs); Table 4a): 2 µg/mL (≈ 3.14 µM); IC90 (Botrtyis cinerea (Bc); Table 4a): > 50 µg/mL; Concentration at 90% Inhibition St (Septoria tritici (St); Table 4b, 48 hours): D (“D” provided a compound concentration of >50 ppm at 90% inhibition of fungal pathogens); IC90 (Septoria tritici (St); Table 4a, 48 hours): > 50 µg/mL; IC90 (Diplodia maydis (Dm); Table 4a): > 50 µg/mL; IC90 ([2]; Table 4a, 48 hours, read-out: Concentration at 90% Inhibition Fv): > 50 µg/mL; IC90 ([3]; Table 4a): 2 µg/mL (≈ 3.14 µM); IC90 ([4]; Table 4a, 48 hours): 2 µg/mL (≈ 3.14 µM)
COCCO[C@@H](Cn1c(=O)n(C(C)(C)C(=O)NC2CCCCC2)c(=O)c2c(C)c(-n3cccn3)sc21)c1cc(F)ccc1OC [Compound I-46, (R)—N-cyclohexyl-2-(1-(2-(5-fluoro-2-methoxyphenyl)-2-(2-methoxyethoxy)ethyl)-5-methyl-2,4-dioxo-6-(1H-pyrazol-1-yl)-1,4-dihydrothieno[2,3-d]pyrimidin-3(2H)-yl)-2-methylpropanamide]	8.52 to 9.22	< 7.40	> 50	10 (≈ 15.6 µM)	> 50		> 50							IC90 ([1]; 48 h, Table 4b): > 50 µg/mL; IC90 (Septoria tritici (St); 48 h, Table 4b): > 50 µg/mL; IC90 ([2]; read-out: Concentration at 90% Inhibition Fv, Table 4b, 48 hours): > 50 µg/mL; IC90 [4]: 2 µg/mL (≈ 3.12 µM); MIC (C. krusei ATCC 6258; ATCC6258, 48 h): > 4.1 µg/mL; MIC (C. albicans ATCC 90028; ATCC90028, 48 h): > 4.1 µg/mL; MIC ([5]; ATCC22019, 48 h): > 4.1 µg/mL
COCCO[C@@H](Cn1c(=O)n(C(C)(C)C(=O)NC2CCC2)c(=O)c2c(C)c(-n3cccn3)sc21)c1cc(F)ccc1OC [Compound I-47, (R)—N-cyclobutyl-2-(1-(2-(5-fluoro-2-methoxyphenyl)-2-(2-methoxyethoxy)ethyl)-5-methyl-2,4-dioxo-6-(1H-pyrazol-1-yl)-1,4-dihydrothieno[2,3-d]pyrimidin-3(2H)-yl)-2-methylpropanamide]	8.52 to 9.22	7.40 to 8.00	> 50	2 (≈ 3.26 µM)	> 50	2 (≈ 3.26 µM)	10 (≈ 16.3 µM)	0.4 (≈ 0.652 µM)	0.25 to 1 (≈ 0.407 to 1.63 µM)	0.25 to 1 (≈ 0.407 to 1.63 µM)	0.25 to 1 (≈ 0.407 to 1.63 µM)	> 50	> 50	
COCCO[C@@H](Cn1c(=O)n([C@H](C)C(=O)N2CCCC2)c(=O)c2c(C)c(-n3cccn3)sc21)c1cc(F)ccc1OC [Compound I-76, 1-((R)-2-(5-fluoro-2-methoxyphenyl)-2-(2-methoxyethoxy)ethyl)-5-methyl-3-((R)-1-oxo-1-(pyrrolidin-1-yl)propan-2-yl)-6-(1H-pyrazol-1-yl)thieno[2,3-d]pyrimidine-2,4(1H,3H)-dione]	8.00 to 8.52	< 7.40	> 50	> 50	> 50	> 50	> 50	2 (≈ 3.34 µM)	> 4.1	> 4.1	> 4.1	> 50	> 50	
